Experimental data from patent US20060069132A1, “Azolecarboxamide herbicides” (priority 2004, published 2006).

Experiments:
[1] = tested on: corn; assay: Test B pre-/postemergence herbicide test; format: in vivo, Zea mays; conditions: for Corn plant response rating: postemergence, scale 0 (no effect) to 100 (complete control)
How it was run: (§1)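 Flooded paddy rice and barnyardgrass were treated at the 2-leaf stage; upland plantings received compound either on sown seed or on 1- to 4-leaf seedlings. All were kept 13–15 days in a greenhouse and scored visually, 0–100, relative to untreated plants.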

[2] = tested on: barnyardgrass; assay: Test B pre-/postemergence herbicide test; format: in vivo, Echinochloa crus-galli; conditions: for Barnyardgrass plant response rating: postemergence, scale 0 (no effect) to 100 (complete control)
How it was run: (§2)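 Species tested were Echinochloa crus-galli, Ipomoea coccinea, Xanthium strumarium and Oryza sativa, treated both before emergence and at the 1- to 4-leaf stage; rice and barnyardgrass were also tested under flooding at 2 leaves. Greenhouse incubation lasted 13–15 days before visual 0–100 scoring.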

[3] = tested on: large crabgrass; assay: Test B pre-/postemergence herbicide test; format: in vivo, Digitaria sanguinalis; conditions: for Crabgrass, Large plant response rating: postemergence, scale 0 (no effect) to 100 (complete control)
How it was run: as §1

[4] = tested on: blackgrass; assay: Test B postemergence herbicide test; format: in vivo, Alopecurus myosuroides; conditions: postemergence, visual rating, scale 0 (no effect) to 100 (complete control)
How it was run: (§3)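 Plants grow to 1- to 4-leaf stage (2–18 cm) for postemergence spraying, or to 2-leaf stage for the paddy test. Formulated compound is applied. Greenhouse holding lasts 13–15 days. Response is scored visually relative to controls, 0 no effect to 100 complete control; a dash means no result.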

[5] = tested on: giant foxtail; assay: Test B pre-/postemergence herbicide test; format: in vivo, Setaria faberi; conditions: for Foxtail, Giant plant response rating: postemergence, scale 0 (no effect) to 100 (complete control)
How it was run: as §1

[6] = tested on: rice; assay: Test B flooded paddy test; format: in vivo, Oryza sativa; conditions: 1000 g ai/ha, visual rating, scale 0 to 100 (0 no effect, 100 complete control), 13 to 15 days
How it was run: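 After treating 2-leaf paddy plants or 2–18 cm postemergence plants (1 to 4 leaves) with formulated chemical, researchers kept them in a greenhouse for 13–15 days. Effects were judged visually versus controls: 0 indicates none, 100 total control.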

[7] = tested on: Surinam grass; assay: Test B pre-/postemergence herbicide test; format: in vivo, Urochloa decumbens; conditions: for Surinam Grass plant response rating: postemergence, scale 0 (no effect) to 100 (complete control)
How it was run: as §1

[8] = tested on: barnyardgrass; assay: Test B flooded paddy test; format: in vivo, Echinochloa crus-galli; conditions: 1000 g ai/ha, visual rating, scale 0 to 100 (0 no effect, 100 complete control), 13 to 15 days
How it was run: as §3

[9] = tested on: ducksalad; assay: Test B flooded paddy test; format: in vivo, Heteranthera limosa; conditions: 1000 g ai/ha, visual rating, scale 0 to 100 (0 no effect, 100 complete control), 13 to 15 days
How it was run: as §3

[10] = tested on: wheat; assay: Test B postemergence herbicide test; format: in vivo, Triticum aestivum; set-up: key to Wheat plant response rating: 0 = no effect, 100 = complete control; conditions: postemergence, visual rating, scale 0 (no effect) to 100 (complete control)
How it was run: (§4)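 Visual ratings, 0 (no effect) to 100 (complete control), made versus controls after 13–15 d greenhouse. Paddy plants treated at 2-leaf stage; postemergence plants at 1- to 4-leaf stage, 2–18 cm tall.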

[11] = tested on: velvetleaf; assay: Test B pre-/postemergence herbicide test; format: in vivo, Abutilon theophrasti; conditions: for Velvetleaf plant response rating: postemergence, scale 0 (no effect) to 100 (complete control)
How it was run: as §1

[12] = tested on: morningglory; assay: Test B pre-/postemergence herbicide test; format: in vivo, Ipomoea coccinea; conditions: visual rating; for Morningglory plant response rating: postemergence, scale 0 (no effect) to 100 (complete control)
How it was run: as §2

[13] = tested on: small flower umbrella sedge; assay: Test B flooded paddy test; format: in vivo, Cyperus difformis; conditions: 1000 g ai/ha, visual rating, scale 0 to 100 (0 no effect, 100 complete control), 13 to 15 days
How it was run: as §3

[14] = tested on: lambsquarters; assay: Test B pre-/postemergence herbicide test; format: in vivo, Chenopodium album; conditions: for Lambsquarters plant response rating: postemergence, scale 0 (no effect) to 100 (complete control)
How it was run: as §1

[15] = tested on: pigweed; assay: Test B pre-/postemergence herbicide test; format: in vivo, Amaranthus retroflexus; conditions: for Pigweed plant response rating: postemergence, scale 0 (no effect) to 100 (complete control)
How it was run: as §1

[16] = tested on: rice; assay: Test B pre-/postemergence herbicide test; format: in vivo, Oryza sativa; conditions: 0 = no effect, 100 = complete control, preemergence
How it was run: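 Evaluation is visual, comparing treated with control plants on a scale where 0 means no effect and 100 means full control. Treatments were preemergence, or postemergence on seedlings 2–18 cm tall, and held 13–15 days in the greenhouse.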

[17] = tested on: cocklebur; assay: Test B pre-/postemergence herbicide test; format: in vivo, Xanthium strumarium; conditions: for Cocklebur plant response rating: postemergence, scale 0 (no effect) to 100 (complete control)
How it was run: as §2

[18] = tested on: wild oat; assay: Test B postemergence herbicide test; format: in vivo, Avena fatua; conditions: postemergence, visual rating, scale 0 (no effect) to 100 (complete control)
How it was run: as §4

[19] = 125 g ai/ha, 0 = no effect, 100 = complete control, preemergence
[20] = 500 g ai/ha, visual rating, 0 = no effect, 100 = complete control, preemergence

CCc1nn(C(C)(C)C)cc1C(=O)Nc1cc(C(=O)N(C)CC)ccc1F [Compound 224]
90: Plant response rating, Barnyardgrass [2, 20] | Rice plant response rating [6] | Barnyardgrass plant response rating [8]
30: Barnyardgrass plant response rating (0 to 100 scale) [2, 19] | Barnyardgrass plant response rating ([2]; 500 g ai/ha, visual rating) | Crabgrass, Large plant response rating (0 to 100 scale) [3, 19] | Foxtail, Giant plant response rating ([5]; 500 g ai/ha, visual rating) | Wheat plant response rating ([10]; 500 g ai/ha) | Plant response rating, Morningglory ([12]; 500 g ai/ha, 0 = no effect, 100 = complete control, preemergence) | Morningglory plant response rating ([12]; 125 g ai/ha) | Rice plant response rating (0 to 100 scale) ([16]; 125 g ai/ha) | Oat, Wild plant response rating ([18]; 500 g ai/ha)
100: Plant response rating, Crabgrass, Large [3, 20] | Plant response rating, Surinam Grass [7, 20] | Plant response rating, Velvetleaf [11, 20] | Lambsquarters plant response rating (0 to 100 scale) [14, 19] | Plant response rating, Lambsquarters [14, 20] | Plant response rating, Pigweed [15, 20]
10: Corn plant response rating ([1]; 125 g ai/ha, visual rating) | Barnyardgrass plant response rating ([2]; 125 g ai/ha, visual rating) | Crabgrass, Large plant response rating ([3]; 125 g ai/ha, visual rating) | Blackgrass plant response rating ([4]; 500 g ai/ha) | Foxtail, Giant plant response rating (0 to 100 scale) [5, 19] | Surinam Grass plant response rating ([7]; 125 g ai/ha, visual rating) | Cocklebur plant response rating ([17]; 125 g ai/ha, visual rating)
40: Pigweed plant response rating ([15]; 125 g ai/ha, visual rating) | Cocklebur plant response rating ([17]; 500 g ai/ha, visual rating)
80: Ducksalad plant response rating [9] | Sedge, Umbrella plant response rating [13] | Pigweed plant response rating (0 to 100 scale) [15, 19] | Plant response rating, Rice ([16]; 500 g ai/ha, visual rating)
50: Plant response rating, Cocklebur [17, 20]
20: Corn plant response rating (0 to 100 scale) [1, 19] | Corn plant response rating ([1]; 500 g ai/ha, visual rating) | Crabgrass, Large plant response rating ([3]; 500 g ai/ha, visual rating) | Foxtail, Giant plant response rating ([5]; 125 g ai/ha, visual rating) | Surinam Grass plant response rating ([7]; 500 g ai/ha, visual rating) | Velvetleaf plant response rating ([11]; 125 g ai/ha, visual rating) | Cocklebur plant response rating (0 to 100 scale) [17, 19]
0: Blackgrass plant response rating ([4]; 125 g ai/ha) | Wheat plant response rating ([10]; 125 g ai/ha) | Oat, Wild plant response rating ([18]; 125 g ai/ha)
60: Surinam Grass plant response rating (0 to 100 scale) [7, 19] | Velvetleaf plant response rating ([11]; 500 g ai/ha, visual rating) | Lambsquarters plant response rating ([14]; 125 g ai/ha, visual rating) | Pigweed plant response rating ([15]; 500 g ai/ha, visual rating)
70: Plant response rating, Corn [1, 20] | Plant response rating, Foxtail, Giant [5, 20] | Velvetleaf plant response rating (0 to 100 scale) [11, 19] | Morningglory plant response rating ([12]; 500 g ai/ha) | Lambsquarters plant response rating ([14]; 500 g ai/ha, visual rating)
